Source: article PMC6724035, “Evaluation of Tumor-Targeting Properties of an Antagonistic Bombesin Analogue RM26 Conjugated with a Non-Residualizing Radioiodine Label Comparison with a Radiometal-Labelled Counterpart” (Pharmaceutics, 2019)
Where a SMILES comes first, the peptide text is derived from it. [ ]: non-standard residue; d: D form. Tyr(3-I) = N[C@@H](Cc1ccc(O)c(I)c1)C(=O)O; Sta = CC(C)C[C@H](N)[C@@H](O)CC(=O)O; AEEA = NCCOCCOCC(=O)O

What was measured:
[1] = HPLC
Experimental: In vitro stability of [^125I]I-Tyr-PEG2-RM26 was evaluated in PBS and in presence of 100-fold molar excess of sodium iodide (1 mM). After purification, samples of freshly labelled conjugate (10 µL, 0.01 nmol) were mixed with 1 µL of NaI and incubated at room temperature for 1 h. Control samples were mixed with equal volume of PBS. The experiment was performed in duplicates. The stability of [^125I]I-Tyr-PEG2-RM26 was analyzed by HPLC.

PC-3 cells = experiment: Cellular processing assay (membrane-bound and internalized radioactivity); assay type: cell-based, human; conditions: 1 nM, 37 °C
Experimental: At predetermined time points (1, 2, 4, 8, 24 h), incubation media was aspirated, cells were washed with serum-free media, and membrane-bound and internalized radioactivity were collected using the method described earlier. The membrane-bound radiolabelled conjugate were removed from cells by treatment with 4 M urea solution in a 0.1 M glycine buffer, pH 2, for 5 min on ice. The cell debris containing the internalized conjugate was detached by treatment with 1 M NaOH. Radioactivity of samples was measured, and percentage of membrane-bound, internalized and total radioactivity was calculated. The experiments were performed in triplicate.

CC(C)C[C@H](NC(=O)C[C@H](O)[C@H](CC(C)C)NC(=O)[C@H](Cc1c[nH]cn1)NC(=O)CNC(=O)[C@@H](NC(=O)[C@H](C)NC(=O)[C@H](Cc1c[nH]c2ccccc12)NC(=O)[C@H](CCC(N)=O)NC(=O)[C@@H](Cc1ccccc1)NC(=O)COCCOCCNC(=O)[C@@H](N)Cc1ccc(O)c(I)c1)C(C)C)C(N)=O [[^125I]I-Tyr-PEG2-RM26] (H-[Tyr(3-I)][AEEA][dF]QWAVGH[Sta]L-NH2)
In vitro stability in presence of excess 1 mM NaI ([1]; 100-fold molar excess NaI, 1 h at room temperature): 92 ± 3% | In vitro stability in PBS ([1]; 1 h incubation at room temperature): 95 ± 1% | Cellular processing pattern (PC-3 cells): quite fast internalization during the first hour
